Data: PMC10671360, “In Silico and In Vitro Study towards the Rational Design of 4,4′-Disarylbisthiazoles as a Selective α-Synucleinopathy Biomarker” (International Journal of Molecular Sciences, 2023)
“Also recorded” adds a separate entry of the source.

Key:
α-syn = α-syn (Homo sapiens, UniProt P37840); parameters: method as in PMID 12657667, PMID 32098280, PMID 18221373; conditions: [^3H]PiB; cited from earlier work
tau = tau (Homo sapiens, UniProt P10636); parameters: method as in PMID 12657667, PMID 32098280, PMID 18221373; conditions: [^3H]PiB; cited from earlier work
[1] = biological target: T1, recombinant α-syn fibrils (Homo sapiens, UniProt P37840); assay: Competition binding assay against [^3H]PiB, α-syn fibrils; conditions: for Selectivity Aβ/α-syn / Selectivity tau/α-syn: ratio of Ki, [^3H]PiB was used
T1 construct: made in house

Aβ1−42 fibrils = biological target: T2, Aβ1−42 fibrils (Homo sapiens, UniProt P05067); assay: Competition binding assay against [^3H]PiB, Aβ1−42 fibrils; conditions: read-out: Ki Aβ
T2 construct: 1 mg of β-amyloid1–42 peptide (Abcam, Cambridge, UK); purchased Abcam
Experimental: After the dissolution of 1 mg of β-amyloid1–42 peptide (Abcam, Cambridge, UK) in 50 μL of DMSO, 925 μL of Milli-Q® water was added to it, and the mixture was stirred. Finally, 25 μL of 1M Tris HCl, pH 7.4 was added to bring the final peptide concentration to 1 mg/mL. The mixture was then left to incubate at 37 °C for 30 h with shaking at 900 rpm. To separate the non-aggregated monomers from the formed fibrils, the reaction mixture was centrifuged at 12,000× g for 5 min, and the resulting pellet was washed three times with 500 μL of 20 mM Tris-HCl, pH 7.4. The supernatants from the three centrifugation steps were combined, and the concentration of the monomer in the resulting supernatant was determined in a BCA assay (Thermo Fisher Scientific, Waltham, MA, USA) (with a BSA standard curve). Determination of the concentration of fibrils formed was carried out by subtracting the amount of β-amyloid1−42 peptide monomer in the supernatant from the initial amount used for fibrillation.
(§1) The pellets of the fibrils obtained above (Section 4.2.1) were resuspended in 20 mM of Tris-HCl, pH 7.4 and diluted as needed for the binding assays.
(§2) A fixed concentration of [^3H]DCVJ (10 nM) and α-synuclein aggregates (125 nM), prepared as described above (Section 4.2.3), was used with different final concentrations of the DABTAs from 0.01 to 100 nM (see SI Figure S1). The experiment was carried out in quintuplicate for each concentration. The mixture was incubated for 2 h in a final volume of 200 μL per well after dilution with 20 mM of Tris-HCl, pH 7.4. The incubated mixtures were filtered through a Perkin Elmer GF/B glass filter via a TOMTEC cell harvester and immediately washed thrice with 1 mL of deionized water. The filters containing the bound ligands were dried and afterwards mixed with 3 mL of BetaPlate Scint solution (Perkin Elmer Life Sciences, Waltham, MA, USA) and left there for 2 h before counting in a Wallac 1450 MicroBeta TriLux Liquid Scintillation Counter (PerkinElmer Life Sciences, Waltham, MA, USA). For the determination of the inhibition constants, data were analyzed using GraphPad Prism software (version 7.0) to obtain IC50 values by fitting the data to the equation Y = bottom + (top − bottom)/(1 + 10(x − log IC50)). Ki values were calculated from IC50 values using the equation Ki = IC50/(1 + [radioligand]/Kd). […] Further protocol was carried out as for [^3H]DCVJ (see SI Figure S3).
Further procedures followed the same already described in Section 4.2.3.1 (See SI Figure S4).

[2] = biological target: T1, recombinant α-syn fibrils; assay: Competition binding assay against [^3H]DCVJ, α-syn fibrils; conditions: ratio of Ki, [^3H]DCVJ was used
Experimental: The incubation of purified recombinant α-synuclein monomer (10 mg/mL) obtained as described by Uzuegbunam was carried out in PBS (pH 7.4) at 37 °C. The solution was left shaking at 900 rpm in an Eppendorf Thermomixer for up to 84 h. Determination of the concentration of the formed fibrils (α-syn) was carried out following the centrifugation of the reaction vial at 12,000× g for 5 min. The pellet obtained was washed thrice with 20 mM of Tris-HCl, pH 7.4. The supernatants from the three centrifugation steps were combined, and the concentration of the monomer in the resulting supernatant was determined in a BCA assay (Thermo Fisher Scientific, Waltham, MA, USA) (with a BSA standard curve). Determination of the concentration of α-syn was carried out by subtracting the amount of α-synuclein monomer in the supernatant from the initial amount used for fibrillation.
as §1, §2

[3] = parameters: method as in PMID 35572127; conditions: cited from earlier work
tau fibrils = tau fibrils (Homo sapiens, UniProt P10636); assay: Competition binding assay against [^3H]PiB, tau fibrils
Experimental: as §2, with “Recombinant tau monomer (R&D systems, Minneapolis, MN, USA) was dissolved in 20 mM of Tris HCl, pH 8.0, 100 mM of NaCl, 25 μM of low-MW heparin, and 0.5 mM of dithiothreitol to a final concentration of 300 µg/mL. The mixture was incubated with shaking at 900 rpm at 37 °C for 48 h. To separate the non-aggregated monomers from the formed fibrils, the reaction mixture was centrifuged at 12,000× g for 5 min, and the resulting pellet was washed three times with 500 μL of 20 mM Tris-HCl, pH 7.4. The supernatants from the three centrifugation steps were combined, and the concentration of the monomer in the resulting supernatant was determined in a BCA assay(Thermo Fisher Scientific, Waltham, MA, USA) (with a BSA standard curve). Determination of the concentration of fibrils formed was carried out by subtracting the amount of tau peptide monomer in the supernatant from the initial amount used for fibrillation. The pellets of the fibrils obtained above (Section 4.2.1) were resuspended in 20 mM of Tris-HCl, pH 7.4 and diluted as needed for the binding assays. A fixed” for “A fixed”, “Figure S3). […] Further procedures followed the same already described in Section 4.2.3.1 (See SI Figure S4).” for “Figure S3).”

[4] = Solubility in the incubation medium of the binding assays; type: physicochemical; conditions: incubation buffer of the binding assays

T2 sequence (P05067 672-713): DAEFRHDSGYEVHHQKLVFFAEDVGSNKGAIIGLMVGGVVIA
Sequence of tau fibrils (P10636 2-758): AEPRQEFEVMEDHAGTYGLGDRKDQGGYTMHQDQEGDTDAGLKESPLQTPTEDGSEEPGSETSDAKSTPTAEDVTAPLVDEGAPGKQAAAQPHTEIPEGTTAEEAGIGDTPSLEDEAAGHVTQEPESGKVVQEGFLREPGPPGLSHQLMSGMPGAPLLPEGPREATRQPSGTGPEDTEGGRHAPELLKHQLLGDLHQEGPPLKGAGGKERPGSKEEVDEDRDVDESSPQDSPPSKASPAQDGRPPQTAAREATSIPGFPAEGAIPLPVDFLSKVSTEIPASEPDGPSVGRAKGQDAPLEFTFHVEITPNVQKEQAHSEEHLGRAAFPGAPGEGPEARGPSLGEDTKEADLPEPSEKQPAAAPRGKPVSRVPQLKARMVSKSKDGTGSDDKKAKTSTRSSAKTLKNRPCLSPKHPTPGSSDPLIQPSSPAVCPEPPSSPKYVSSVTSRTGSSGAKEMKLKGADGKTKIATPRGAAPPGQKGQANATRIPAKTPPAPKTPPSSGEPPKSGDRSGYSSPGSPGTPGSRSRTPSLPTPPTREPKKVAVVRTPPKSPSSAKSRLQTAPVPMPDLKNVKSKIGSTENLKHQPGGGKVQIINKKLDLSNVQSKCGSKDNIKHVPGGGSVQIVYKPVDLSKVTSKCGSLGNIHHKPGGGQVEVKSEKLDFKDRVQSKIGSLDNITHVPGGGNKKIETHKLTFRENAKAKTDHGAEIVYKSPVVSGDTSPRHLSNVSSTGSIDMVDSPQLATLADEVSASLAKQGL
Sequence of tau (P10636 2-758): as above

| Ki [1] [µM] | Selectivity Aβ/α-syn [1] | Selectivity tau/α-syn [1] | Ki (Aβ1−42 fibrils) [µM] | Selectivity Aβ/α-syn [2] | Selectivity tau/α-syn [2] | Ki (tau fibrils) [µM] | Compound | Kd (α-syn) [µM] | Kd (tau) [µM] | brain uptake and washout [3] | solubility in the incubation medium [4] |
| --- | --- | --- | --- | --- | --- | --- | --- | --- | --- | --- | --- |
| – | – | – | – | – | – | – | [3H]C([3H])([3H])Nc1ccc(-c2nc3ccc(O)cc3s2)cc1 [[^3H]PiB] | 0.0049 | 0.117 | – | – |
| 0.00101 | 125.8 | >990.1 | 0.127 | 3863.0 | >10,000.0 | – | Fc1ccc(-c2csc(-c3nc(-c4cnc5c(c4)OCO5)cs3)n2)cn1 [d8, 6-(4′-(6-Fluoropyridin-3-yl)-[2,2′-bithiazol]-4-yl)-[1,3]dioxolo[4,5-b]pyridine] | – | – | excellent brain uptake and washout | – |
| 0.00251 | 60.1 | 318.2 | 0.151 | 196.0 | 798.3 | 0.799 | Fc1ccc(-c2csc(-c3nc(-c4ccc5c(c4)OCO5)cs3)n2)cn1 [d6, 4-(Benzo[d][1,3]dioxol-5-yl)-4′-(6-fluoropyridin-3-yl)-2,2′-bithiazole] | – | – | excellent brain uptake and washout | – |
| 0.0023 | – | – | – | – | – | – | FCCOCCOc1cnc(-c2csc(-c3nc(-c4cnc5c(c4)OCO5)cs3)n2)nc1 [f8, 6-(4′-(5-(2-(2-Fluoroethoxy)ethoxy)pyrimidin-2-yl)-[2,2′-bithiazol]-4-yl)-[1,3]dioxolo[4,5-b]pyridine] | – | – | – | low solubility; also recorded: decreased solubility |
